Values joined by “and” are separate entries in the source; they are usually repeats but may differ in a detail not shown here. Equal values may be shown once.
Legend:
[1] = system: tetradecanoylphorbol 13-acetate (TPA) induced ear edema; assay: TPA-induced ear edema model; assay type: in vivo, mice
Method: A stock solution of TPA was prepared by dissolving TPA in DMSO, 1 mg/mL, and was stored frozen at −80° C. For study B-E, a working solution was prepared with 200 μL of the TPA stock solution added to 800 μL acetone. The working solution was used the same day as it was prepared.
Each cage was identified by a cage card marked with study number, group number, ethical approval number, sex and animal ear numbers. The animals were individually marked on the tail with transverse lines corresponding to the animals' number, using a permanent-ink felt pen. An illustration of the protocols used for the different treatments is outlined in Table 4. The compounds were tested according to the same protocols with necessary modifications.
Intraperitoneal (i.p.) injections were performed by giving 100 μL in the lower right quadrant of the abdomen. Subcutaneous injections were done with 100 μL in the neck region. Intranasal administration was performed by letting the mouse inhale droplets into the nostrils, total volume 40 μL. All administrations were done on non-anesthetized mice.
(§1) Both outer ears of a non-anesthetized mouse were washed with mild soap (Palmolive, Sweden) using a soft tooth brush, the ears were dried with tissue and cleaned with tissue soaked with acetone. After allowing the acetone to evaporate, TPA or AA was applied on both sides, 10 μL, on each side of the ear with care to cover the whole ear. The mouse was held for 20 seconds to allow the solvent to evaporate.
Intraperitoneal injections were given in the lower right quadrant of the abdomen with the animal held in a supine position. Subcutaneous (s.c.) injections were given in the neck of the animals. Intranasal administrations were given to mice held in a slightly reclining position. With an adjustable micro-pipette 40 μL of the test substance was given in droplets on the nostrils and the mouse was allowed to aspirate at free will.
(§2) The ears of non-anesthetized mice were measured at different time points for up to 96 hours after the TPA was administered, or up to 24 hours for the AA model. The first measurements were done before the edema was induced. The thickness was recorded with a spring loaded dial micrometer (Limit, Thickness Gauge, accuracy 0.01 mm, contact area Ø6 mm, Luna AB, Allingsås, Sweden) in triplicates at all time points per ear.
(§3) The average thickness for both ears on a mouse was calculated and compared to the average thickness of the ears at the starting time point. The value obtained at the start of the experiment was set as 100%. The peak values and area under the curve (AUC) values for the treatment groups were calculated and compared to the inflamed control group, treated with PBS (set as 100%), and expressed as a percentage change (Δ% AUC).
(§4) Area under the curve (AUC) with base line set as 100 was calculated using GraphPad Prism version 4.03 for Windows (GraphPad Software, San Diego Calif. USA, www.graphpad.com).
AUC reduction and P-values were calculated against the positive control (TPA or AA+PBS).

[2] = system: arachidonic acid (AA) induced ear edema; assay: Arachidonic acid (AA) induced ear edema model; assay type: in vivo, mice; settings: 10 μg one single s.c. injection 20 minutes before AA; compared to PBS control
Method: A stock solution of AA was prepared by diluting AA in acetone, 4 mg/10 μL, and was stored frozen at −80° C. A final working solution, 1 mg/10 μL, in acetone was prepared. The working solution was used within one hour after preparation.
as §1, §2, §3, §4
In addition to the experiments done with the control compounds and IDX0001, all other test compounds were investigated in a similar fashion in the TPA and/or AA ear edema models, where the test compounds were given subcutaneously (10 μg) 20 minutes before induction of edema. The results were expressed as reduction of peak value and reduction of area under curve (AUC) in Table 5.

[3] = system: thioglycolate induced pleurisy; assay: Thioglycolate induced pleurisy; assay type: in vivo, C57/Bl6 mice; settings: 50 μg/mouse i.p. 20 min before induction of pleurisy
Method: Mice were anesthetized by an intraperitoneal injection of 0.15-0.20 ml of a mixture of ketamine (Ketalar® Parke-Davis; 25 mg/ml) and xylazine (Narcoxyl Vet.® Veterinaria AG; 5 mg/ml).
The left jugular vein was cannulated with polyethylene tubing (PE10) for intravenous administration (i.v.). A skin incision was made on the right side of the chest. Following dissection of the underlying muscle, pleurisy (inflammation of the lung sack) was induced by a single intrapleural injection of 100 μl of thioglycolate (Sigma). Sterile PBS was used as negative control.
FITC-conjugated dextran in PBS (100 μl, 30 mg/ml) was injected i.v. After 4 h, the animals were euthanized with an overdose of anaesthesia, the chest was carefully opened and the exudate was removed by aspiration and the volume noted. The thorax was then rinsed with 1 ml of ice-cold 3 mM EDTA in PBS. Exudate which was contaminated with red blood cells was discarded.
The exudate and rinsed material was centrifuged at 1500 g for 5 min and the supernatant was used for measurement of fluorescence intensity in a fluorometer (Fluoroskan Acsent, LabSystems) and clearance volume of FITC-dextran was calculated. […]
Cells from the exudate were stained with neutrophil and macrophage specific antibodies and were analyzed by flow cytometry (FACSort and CellQuest software, BD). […]

Substance: G*G*A*ACAGTTCGTCCAT*G*G*C (phosphorothioate linkages, as printed in the source, key not given here) [IDX0150, oligonucleotide used as control; * = phosphorothioate modification]
- average inflammatory peak value of swelling ([1]; FIG. 2, 100 μg IDX0150, combined from 10 experiments, vs PBS vehicle with TPA, P<0.001): very high statistical significant reduction in peak values
- Reduction of AUC compared to PBS ([1]; Study A / FIG. 1, 100 μg, one single injection (i.p. in Study A, s.c. in FIG. 1) 20 min before TPA, day 0): −38.9%
- reduction of AUC ([1]; Study B, 100 μg s.c. 4 days before induction of edema): no reduction of AUC
- reduction of AUC ([1]; Study C (repeat of B), 100 μg s.c. 4 days before induction of edema): −22%
- reduction of AUC ([1]; Study D, 100 μg s.c. 2 days before induction of edema): −16.5%
- reduction of AUC ([1]; Study E, 100 μg s.c. same day, approx. 20 min before induction): −27.3%
- reduction of AUC ([1]; Study F, equal doses 50 μg s.c. same day as swelling induced): −31.1%
- reduction of AUC ([1]; Study G, therapeutic, 100 μg s.c. 2 hours after induction of edema): −42.3%
- reduction of AUC ([1]; Study H, 100 μg intranasal 4 days before swelling induced): −25.7%
- reduction of AUC ([1]; Study I, 100 μg intranasal day 0, same day as edema induced): −28.4%
- AUC reduced ([1]; Study J, therapeutic, 100 μg intranasal 2 hours after induction): −28.8%
- reduction of AUC ([1]; Study K dose response, 0.1 μg s.c. day 0): −13.9%
- reduction of AUC ([1]; Study K dose response, 1 μg s.c. day 0): −16.3%
- reduction of AUC ([1]; Study K dose response, 10 μg s.c. day 0): −27.9%
- reduction of AUC ([1]; Study K dose response, 100 μg s.c. day 0): −45%
- reduction of AUC ([1]; Study O, 10 μg given s.c. on day 0 (Table 4: i.n.)): −25.5%
- AUC reduction (%) AA [2]: −89.4%
- reduction of number of PMN in pleural exudates ([3]; compared to inflamed mice (PBS)): 42% and 40.9%
- reduction in clearance volume of pleural edema (vascular permeability) ([3]; compared to thioglycolate treatment): 68.2% and 69.2%

Reference: patent US8410068B2, “Compounds for the treatment or alleviation of edema, and methods for their use” (Index Pharmaceuticals AB, priority 2007, dated 2013)
